# Patent publication US8415349B2, “Dicycloazaalkane derivatives, preparation processes and medical uses thereof” (Jiangsu Hansoh Pharmaceuticals Co., Ltd., priority 2008, dated 2013)
# Counter-ions that a name gives are not always drawn.
# Experiments:
# KKAy mice = assay: Oral glucose tolerance test in type II diabetes KKAy mice; format: in vivo; conditions: 30 min after glucose
# Description: Species, Strains: KKAy mice Preparation Method: […] The volume is 10 mL/kg. The Effects of the Compounds on Blood Glucose in KKay Mice Normal KKAy mice had been fasted for 6 hours, and then were randomly grouped according to the weights and fasting blood glucose, 5 mice in each group. The groups included a blank control group as well as different doses of the treatment groups as follows: Test 1: male 0704 Blank control: double-distilled water by gavage […] Test 2: female 0816 Blank control: double-distilled water by gavage […] Test 3: male 0712 Black control: double-distilled water by gavage […] Test 4: female 0907 Black control: double-distilled water by gavage […] 3. Mean±SD and Student-t test, or Anova was used in statistical analysis. 4.
# [1] = Observation of water solubility when preparing dosing liquid; format: physicochemical; conditions: double distilled water; visible particles at 0.5 mg/mL, dissolved at low concentration
# Description: Preparation Method: Compounds were weighed accurately, and then dissolved in double distilled water. The suspensions of 0.5, 0.15 and 0.05 mg/mL were prepared, respectively.
# normal ICR mice = assay: Oral glucose tolerance test in normal ICR mice (hypoglycemic effect); format: in vivo; conditions: 2.5 g/kg glucose, 30 min after glucose
# Description: Species, strains: ICR mice […] The volume is 20 mL/kg. […] The volume is 20 mL/kg. 1. The effects of compounds on blood glucose levels in normal ICR mice Normal male ICR mice were randomly grouped according to weights, 6 mice in each group. The groups included a black control group as well as different doses of the treatment groups as follows: Test 1: Blank control: double-distilled water by gavage. Group 1: the compound of Example 1, 1 mg/kg by gavage; […] Test 2: Blank control: double-distilled water by gavage. Group 1: the compound of Example 1, 1 mg/kg by gavage; […] 2. Serum Glucose Determination: […] The blank tube was used to set the instrument to zero, the colorimetric assay was performed at OD 505 nm. Serum glucose concentration (BG, mmol/l)=ODsample tube/ODstandard tube×5.55 Data Processing and Statistical Analysis: 1. Mean±SD and Student-t test were used in statistical analysis. 2.
# DPP-VIII = molecular target: T1, DPP-VIII (Homo sapiens, UniProt Q6V1X1); assay: Assay for DPP-VIII inhibitory activity (luminescence); format: biochemical; conditions: purified DPP-VIII enzyme
# T1 construct: purchased Bioscience 80080
# T1 sequence (Q6V1X1 whole entry): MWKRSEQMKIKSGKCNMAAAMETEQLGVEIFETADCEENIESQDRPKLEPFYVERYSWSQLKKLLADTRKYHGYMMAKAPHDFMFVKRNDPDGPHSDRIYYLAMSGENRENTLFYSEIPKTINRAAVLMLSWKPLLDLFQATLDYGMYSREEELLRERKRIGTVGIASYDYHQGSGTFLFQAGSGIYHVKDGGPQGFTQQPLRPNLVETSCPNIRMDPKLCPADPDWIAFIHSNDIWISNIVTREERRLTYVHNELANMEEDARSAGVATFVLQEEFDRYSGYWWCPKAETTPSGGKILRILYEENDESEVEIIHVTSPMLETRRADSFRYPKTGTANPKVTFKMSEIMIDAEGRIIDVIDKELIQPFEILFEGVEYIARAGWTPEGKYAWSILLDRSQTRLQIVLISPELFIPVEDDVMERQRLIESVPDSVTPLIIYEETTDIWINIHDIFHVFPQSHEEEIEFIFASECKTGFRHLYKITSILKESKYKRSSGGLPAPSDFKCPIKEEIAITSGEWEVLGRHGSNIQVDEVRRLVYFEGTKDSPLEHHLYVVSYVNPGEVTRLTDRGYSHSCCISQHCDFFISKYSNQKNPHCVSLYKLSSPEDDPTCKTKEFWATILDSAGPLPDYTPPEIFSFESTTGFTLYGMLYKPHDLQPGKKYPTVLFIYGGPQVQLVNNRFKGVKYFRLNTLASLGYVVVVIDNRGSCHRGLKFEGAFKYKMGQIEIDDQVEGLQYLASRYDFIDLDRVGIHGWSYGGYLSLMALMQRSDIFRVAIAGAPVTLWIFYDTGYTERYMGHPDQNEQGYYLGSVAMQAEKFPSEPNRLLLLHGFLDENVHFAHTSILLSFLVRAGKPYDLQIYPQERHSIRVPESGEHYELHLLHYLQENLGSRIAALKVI
# DPP-IV = molecular target: T2, DPP-IV (Homo sapiens, UniProt P27487); assay: Assay for DPP-IV inhibitory activity (DPP-IV-Glo luminescence); format: biochemical; conditions: purified DPP-IV enzyme
# T2 construct: purchased Calbiochem 317630
# T2 sequence (P27487 whole entry): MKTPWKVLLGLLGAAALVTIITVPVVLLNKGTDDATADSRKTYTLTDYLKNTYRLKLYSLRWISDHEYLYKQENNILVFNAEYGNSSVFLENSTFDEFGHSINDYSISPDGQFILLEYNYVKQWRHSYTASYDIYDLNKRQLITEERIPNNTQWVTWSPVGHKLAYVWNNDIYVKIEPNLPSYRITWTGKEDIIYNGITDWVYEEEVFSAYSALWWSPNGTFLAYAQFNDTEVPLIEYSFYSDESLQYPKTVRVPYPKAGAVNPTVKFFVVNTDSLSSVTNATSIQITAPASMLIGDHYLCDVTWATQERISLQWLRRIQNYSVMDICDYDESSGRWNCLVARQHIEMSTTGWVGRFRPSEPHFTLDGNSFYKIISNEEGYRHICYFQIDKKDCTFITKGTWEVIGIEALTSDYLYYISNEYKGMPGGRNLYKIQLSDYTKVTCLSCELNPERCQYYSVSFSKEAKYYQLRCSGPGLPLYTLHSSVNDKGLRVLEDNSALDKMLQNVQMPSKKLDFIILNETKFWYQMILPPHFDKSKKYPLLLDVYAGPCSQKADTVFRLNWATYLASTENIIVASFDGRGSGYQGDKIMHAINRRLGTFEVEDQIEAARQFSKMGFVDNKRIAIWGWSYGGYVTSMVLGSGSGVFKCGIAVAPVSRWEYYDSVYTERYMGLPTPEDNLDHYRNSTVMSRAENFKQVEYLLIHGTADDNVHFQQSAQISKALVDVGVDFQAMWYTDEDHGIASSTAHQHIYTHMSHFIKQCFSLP
# From the text: 2. […] 3. […] 4. […] 5. […] 7. […] 9. […] 10. […] 11. […] 12.
# DPP-IX = molecular target: T3, DPP-IX (Homo sapiens, UniProt Q86TI2); assay: Assay for DPP-IX inhibitory activity (luminescence); format: biochemical; conditions: purified DPP-IX enzyme
# T3 construct: purchased Bioscience 80090
# T3 sequence (Q86TI2 whole entry): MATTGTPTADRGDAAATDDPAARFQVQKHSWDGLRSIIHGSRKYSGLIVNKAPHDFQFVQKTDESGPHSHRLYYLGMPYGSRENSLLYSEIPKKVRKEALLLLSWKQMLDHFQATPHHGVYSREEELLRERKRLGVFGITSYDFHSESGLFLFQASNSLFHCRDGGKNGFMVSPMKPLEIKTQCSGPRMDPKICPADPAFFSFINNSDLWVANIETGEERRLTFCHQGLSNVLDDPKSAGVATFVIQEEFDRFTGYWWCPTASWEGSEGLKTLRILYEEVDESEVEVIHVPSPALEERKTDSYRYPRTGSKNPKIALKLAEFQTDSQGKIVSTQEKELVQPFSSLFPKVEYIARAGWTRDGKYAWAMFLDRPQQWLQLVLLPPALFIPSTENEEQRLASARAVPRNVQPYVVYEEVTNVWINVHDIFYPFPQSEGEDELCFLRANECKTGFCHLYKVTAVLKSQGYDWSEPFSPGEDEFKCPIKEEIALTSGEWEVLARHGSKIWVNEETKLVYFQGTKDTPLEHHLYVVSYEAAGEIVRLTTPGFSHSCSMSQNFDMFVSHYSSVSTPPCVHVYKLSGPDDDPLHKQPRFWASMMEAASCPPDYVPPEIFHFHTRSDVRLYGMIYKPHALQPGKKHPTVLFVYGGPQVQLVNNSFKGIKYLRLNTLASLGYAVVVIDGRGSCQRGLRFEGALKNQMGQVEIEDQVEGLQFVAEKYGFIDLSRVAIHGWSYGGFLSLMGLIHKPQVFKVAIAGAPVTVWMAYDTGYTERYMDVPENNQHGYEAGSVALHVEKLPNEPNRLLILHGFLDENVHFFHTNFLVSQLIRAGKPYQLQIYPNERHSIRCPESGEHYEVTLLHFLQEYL
# [2] = female KKAy mice, 10 mg/kg by gavage, 2.5 g/kg glucose
# [3] = male KKAy mice, 10 mg/kg by gavage, 1.5 g/kg glucose
# [4] = male KKAy mice, 30 mg/kg by gavage, 1.5 g/kg glucose
# [5] = Test 1, male ICR mice, high dose 10 mg/kg by gavage
# [6] = Test 1, male ICR mice, low dose 1 mg/kg by gavage
# [7] = Test 1, male ICR mice, middle dose 3 mg/kg by gavage
# [8] = Test 2, male ICR mice, high dose 10 mg/kg by gavage
# [9] = Test 2, male ICR mice, low dose 1 mg/kg by gavage
# [10] = Test 2, male ICR mice, middle dose 3 mg/kg by gavage
IC50 (DPP-VIII),IC50 (DPP-IV),IC50 (DPP-IX),SMILES,"percentage of blood glucose decreased vs control group at 30 minutes (KKAy mice; female KKAy mice, 3 mg/kg by gavage, 2.5 g/kg glucose)",percentage of blood glucose decreased vs control group at 30 minutes (KKAy mice; [2]),percentage of blood glucose decreased vs control group at 30 minutes (KKAy mice; [3]),percentage of blood glucose decreased vs control group at 30 minutes (KKAy mice; [4]),water solubility (observation) [1],percentage of blood glucose decreased vs control group at 30 minutes (normal ICR mice; [5]),percentage of blood glucose decreased vs control group at 30 minutes (normal ICR mice; [6]),percentage of blood glucose decreased vs control group at 30 minutes (normal ICR mice; [7]),percentage of blood glucose decreased vs control group at 30 minutes (normal ICR mice; [8]),percentage of blood glucose decreased vs control group at 30 minutes (normal ICR mice; [9]),percentage of blood glucose decreased vs control group at 30 minutes (normal ICR mice; [10])
,,,"CN(C)C(=O)N1C[C@H]2C[C@@H](NCC(=O)N3CCC[C@H]3C#N)C[C@H]2C1 [Example 1, cis-5-[2-((S)-2-Cyano-pyrrolidin-1-yl)-2-oxo-ethylamino]-N,N-dimethyl-hexahydro-cyclopenta[c]pyrrole-2-carboxamide hydrochloride]",40.63%,24.68%,16.22%,17.15%,poorly water-soluble,31.85%,19.16%,22.85%,32.05%,26.10%,30.24%
,,,"COC(=O)N1C[C@H]2C[C@@H](NCC(=O)N3CCC[C@H]3C#N)C[C@H]2C1 [Example 2, hydrochloride]",,21.55%,13.79%,12.23%,,26.93%,25.54%,25.92%,27.75%,24.51%,26.96%
371 nM,10 nM,516 nM,"CN(C)C(=O)N1C[C@@H]2C[C@](C)(NCC(=O)N3C[C@@H](F)C[C@H]3C#N)C[C@@H]2C1 [Example 13, 5-[2-((2S,4S)-2-Cyano-4-fluoro-pyrrolidin-1-yl)-2-oxo-ethylamino]-N,N,5-tirmethyl-hexahydro-cyclopenta[c]pyrrole-2-carboxamide tartrate]",,,,,,,,,,,
3320 nM,39 nM,380 nM,"CN(C)C(=O)N1C[C@@H]2C[C@@](C)(NCC(=O)N3C[C@@H](F)C[C@H]3C#N)C[C@@H]2C1 [Example 18, 5-[2-((2S,4S)-2-Cyano-4-fluoro-pyrrolidin-1-yl)-2-oxo-ethylamino]-5-methyl-hexahydro-cyclopenta[c]pyrrole-2-carboxylic acid dimethylamide p-toluenesulfonate]",,,,,,,,,,,
